Source: patent publication US20070128217A1 (priority 2003, published 2007)

Tests used:
[1] = system: antibodies in sera from SARS patients (sera 1a, 1b, 2, 6, 37, 62, London, SARS-yellow, SARS-green); format: binding, human; design: Binding of serum 6 to linear peptides of protein X1 of SARS-CoV Urbani / Binding of serum 37 to linear peptides of protein X1 of SARS-CoV Urbani / Binding of serum 6 to looped/cyclic peptide (PEPSCAN-ELISA) / Binding of serum 37 to looped/cyclic peptide (PEPSCAN-ELISA) / Binding of serum 37 to looped/cyclic peptides of protein X1 of SARS-CoV Urbani / Binding of serum 6 to linear peptides of protein X2 / Binding of serum 37 to linear peptides of protein X2 / Binding of serum 37 to looped/cyclic peptides of protein X2 of SARS-CoV Urbani / Binding of serum 6 to linear peptides of protein M of SARS-CoV Urbani / Binding of serum 37 to linear peptides of protein M of SARS-CoV Urbani / Binding of serum 6 to looped/cyclic peptides of protein M of SARS-CoV Urbani / Binding of serum 37 to looped/cyclic peptides of protein M of SARS-CoV Urbani / Binding of serum 6 to linear peptides of protein X3 of SARS-CoV Urbani / Binding of serum 37 to linear peptides of protein X3 of SARS-CoV Urbani / Binding of serum 37 to looped/cyclic peptides of protein X3 of SARS-CoV Urbani / Binding of serum 6 to linear peptides of protein X4 of SARS-CoV Urbani / Binding of serum 37 to linear peptides of protein X4 of SARS-CoV Urbani / Binding of serum 37 to looped/cyclic peptides of protein X4 of SARS-CoV Urbani / Binding of serum 6 to linear peptides of protein X5 of SARS-CoV Urbani / Binding of serum 37 to linear peptides of protein X5 of SARS-CoV Urbani / Binding of serum 37 to looped/cyclic peptides of protein X5 of SARS-CoV Urbani / Binding of serum 6 to linear peptides of protein N of SARS-CoV Urbani / Binding of serum 37 to linear peptides of protein N of SARS-CoV Urbani / Binding of serum 6 to linear peptide (PEPSCAN-ELISA) / Binding of serum 1a to looped/cyclic peptides of protein N of SARS-CoV Urbani / Binding of serum 1b to looped/cyclic peptides of protein N of SARS-CoV Urbani / Binding of serum 2 to looped/cyclic peptides of protein N of SARS-CoV Urbani / Binding of serum 6 to looped/cyclic peptides of protein N of SARS-CoV Urbani / Binding of serum 37 to looped/cyclic peptides of protein N of SARS-CoV Urbani / Binding of serum 62 to looped/cyclic peptides of protein N of SARS-CoV Urbani / Binding of serum London to looped/cyclic peptides of protein N of SARS-CoV Urbani / Binding of serum SARS-green to looped/cyclic peptides of protein N of SARS-CoV Urbani: unit not given here
[2] = system: recombinant human anti-SARS-CoV antibody 03-018; format: binding; design: Binding of antibody 03-018 to linear peptides of the N protein of SARS-CoV Urbani / Binding of antibody 03-018 to looped/cyclic peptides of the N protein of SARS-CoV Urbani: unit not given here
[3] = system: rabbit serum obtained by immunizing a rabbit with the SARS-CoV strain Frankfurt 1; format: binding; design: Binding of a rabbit serum to linear peptides / Binding of a rabbit serum to looped peptides / Rabbit serum linear peptides / Rabbit serum looped peptides / Binding of a rabbit serum to linear peptides of protein N of SARS-CoV Urbani (Rabbit serum linear peptides) / Binding of a rabbit serum to looped/cyclic peptides of protein N of SARS-CoV Urbani (Rabbit serum looped peptides): unit not given here
[4] = system: control sera (pooled serum of ten healthy LUMC hospital workers; commercial negative donor pooled serum from the Dutch bloodbank); format: binding, human; design: Binding of Control serum LUMC to linear peptides / Binding of Control serum Blood-bank to linear peptides / Binding of Control serum LUMC to looped peptides / Binding of Control Serum Blood-Bank to Looped peptides / Binding of Control serum LUMC to linear peptides of the protein M of SARS-CoV Urbani / Binding of Control serum Blood-bank to linear peptides of the protein M of SARS-CoV Urbani / Binding of Control serum LUMC to looped peptides of the protein M of SARS-CoV Urbani / Binding of Control Serum Blood-Bank to Looped peptides of the protein M of SARS-CoV Urbani: unit not given here

Row | Sequence | Binding of serum 1a to linear peptides of protein N of SARS-CoV Urbani [1] | Binding of serum 1a to looped/cyclic peptides of protein N of SARS-CoV Urbani [1] | Binding of serum 1b to linear peptides of protein N of SARS-CoV Urbani [1] | Binding of serum 1b to looped/cyclic peptides of protein N of SARS-CoV Urbani [1] | Binding of serum 2 to linear peptides of protein N of SARS-CoV Urbani [1] | Binding of serum 2 to looped/cyclic peptides of protein N of SARS-CoV Urbani [1] | Binding of serum 6 to linear peptides of protein N of SARS-CoV Urbani [1] | Binding of serum 6 to looped/cyclic peptides of protein N of SARS-CoV Urbani [1] | Binding of serum 37 to linear peptides of protein N of SARS-CoV Urbani [1] | Binding of serum 37 to looped/cyclic peptides of protein N of SARS-CoV Urbani [1] | Binding of serum 62 to linear peptides of protein N of SARS-CoV Urbani [1] | Binding of serum 62 to looped/cyclic peptides of protein N of SARS-CoV Urbani [1] | Binding of serum London to linear peptides of protein N of SARS-CoV Urbani [1] | Binding of serum London to looped/cyclic peptides of protein N of SARS-CoV Urbani [1] | Binding of serum SARS-green to linear peptides of protein N of SARS-CoV Urbani [1] | Binding of serum SARS-green to looped/cyclic peptides of protein N of SARS-CoV Urbani [1] | Binding of serum SARS-yellow to linear peptides of protein N of SARS-CoV Urbani [1] | Binding of serum SARS-yellow to looped/cyclic peptides of protein N of SARS-CoV Urbani [1] | Binding of a rabbit serum to linear peptides of protein N of SARS-CoV Urbani (Rabbit serum linear peptides) [3] | Binding of a rabbit serum to looped/cyclic peptides of protein N of SARS-CoV Urbani (Rabbit serum looped peptides) [3] | further results
1 | APRITFGGPTDSTDN | 0.2 | 0.4 | 0.2 | 0.2 | 0.2 | 0.3 | 0.2 | 0.2 | 0.8 | 0.6 | 0.7 | 0.6 | 0.6 | 0.2 | 0.6 | 0.6 | 0.3 | 0.4 | 0.2 | 0.6 | Recognition of the peptide by antibody 03-018 [2]: recognized; Binding of Control Serum Blood-Bank to Looped peptides [4]: 0.6; Binding of Control serum Blood-bank to linear peptides [4]: 0.6; Binding of Control serum LUMC to linear peptides [4]: 0.5; Binding of Control serum LUMC to looped peptides [4]: 0.6
2 | APSASAFFGMSRIGM | 0.2 | 0.4 | 0.1 | 0.3 | 0.2 | 0.7 | 0.1 | 0.4 | 0.5 | 0.7 | 0.5 | 0.9 | 0.6 | 2.0 | 0.2 | 0.5 | 0.4 | 0.6 | 0.1 | 0.4 | Binding of antibody 03-018 to linear peptides of the N protein of SARS-CoV Urbani [2]: 0.1; Binding of antibody 03-018 to looped/cyclic peptides of the N protein of SARS-CoV Urbani [2]: 0.2; Control Serum Blood-Bank Looped peptides [4]: 0.8; Control serum Blood-bank linear peptides [4]: 0.7; Control serum LUMC linear peptides [4]: 0.5; Control serum LUMC looped peptides [4]: 0.6
